Reference: ChEMBL document CHEMBL1201862, “PubChem BioAssay data set” (2004)
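Following 48 hours of exposure in 96-well plates, responses at five concentrations were used to interpolate endpoints linearly. Abbreviation: GI50, concentration required for 50% inhibition of growth.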 Calls of active or inactive are those of the source. Cut-off read from the data, not from the text of the source: active = GI50 up to about 1.1 µM and inactive = higher.

Key:
Test in all cases: inhibition of tumour cell growth, NCI panel, 48 h
HOP-62 = tested on: HOP-62
EKVX = tested on: EKVX
PC-3 = tested on: PC-3
HCT-116 = tested on: HCT-116
LOX IMVI = tested on: LOX IMVI
SR = tested on: SR
HCC 2998 = tested on: HCC 2998
NCI-H226 = tested on: NCI-H226
MOLT-4 = tested on: MOLT-4
M14 = tested on: M14
NCI/ADR-RES = tested on: NCI/ADR-RES
SNB-75 = tested on: SNB-75
IGROV-1 = tested on: IGROV-1
CAKI-1 = tested on: CAKI-1
SF-268 = tested on: SF-268
T47D = tested on: T47D
SK-MEL-28 = tested on: SK-MEL-28
SK-MEL-5 = tested on: SK-MEL-5
SNB-19 = tested on: SNB-19
HT-29 = tested on: HT-29
A498 = tested on: A498
SF-295 = tested on: SF-295
MDA-N = tested on: MDA-N
A549 = tested on: A549
SF-539 = tested on: SF-539
BT-549 = tested on: BT-549
RXF 393 = tested on: RXF 393
TK-10 = tested on: TK-10
U-251 = tested on: U-251
HCT-15 = tested on: HCT-15
UACC-257 = tested on: UACC-257
CCRF-CEM = tested on: CCRF-CEM
RPMI-8226 = tested on: RPMI-8226
SK-OV-3 = tested on: SK-OV-3
KM12 = tested on: KM12
MDA-MB-435 = tested on: MDA-MB-435
SN12C = tested on: SN12C
OVCAR-3 = tested on: OVCAR-3
HL-60 = tested on: HL-60
SK-MEL-2 = tested on: SK-MEL-2
786-0 = tested on: 786-0
NCI-H460 = tested on: NCI-H460
K562 = tested on: K562
MCF7 = tested on: MCF7
OVCAR-5 = tested on: OVCAR-5
Hs-578T = tested on: Hs-578T
HOP-92 = tested on: HOP-92
Malme-3M = tested on: Malme-3M
SW-620 = tested on: SW-620
MDA-MB-231 = tested on: MDA-MB-231
UO-31 = tested on: UO-31
ACHN = tested on: ACHN
OVCAR-4 = tested on: OVCAR-4
OVCAR-8 = tested on: OVCAR-8
UACC-62 = tested on: UACC-62
NCI-H522 = tested on: NCI-H522
COLO 205 = tested on: COLO 205
DU-145 = tested on: DU-145
NCI-H23 = tested on: NCI-H23

Measured: GI50

COC(=O)C(=O)C(C(=O)C(=O)Nc1ccccc1OC)c1nc2ccc([N+](=O)[O-])cc2nc1O (centres undefined)
41.4 µM: HCT-15
inactive: HOP-62 > 100 µM | EKVX 45.5 µM | PC-3 > 100 µM | HCT-116 > 100 µM | LOX IMVI 96.2 µM | SR > 100 µM | HCC 2998 > 100 µM | NCI-H226 > 100 µM | MOLT-4 > 100 µM | M14 > 100 µM | NCI/ADR-RES > 100 µM | SNB-75 > 100 µM | IGROV-1 54.8 µM | CAKI-1 > 100 µM | SF-268 > 100 µM | T47D > 100 µM | SK-MEL-28 > 100 µM | SK-MEL-5 > 100 µM | SNB-19 23.2 µM | HT-29 > 100 µM | A498 > 100 µM | SF-295 > 100 µM | MDA-N 32.7 µM | A549 > 100 µM | SF-539 > 100 µM | BT-549 > 100 µM | RXF 393 > 100 µM | TK-10 > 100 µM | U-251 > 100 µM | UACC-257 > 100 µM | CCRF-CEM > 100 µM | RPMI-8226 > 100 µM | SK-OV-3 > 100 µM | KM12 54.3 µM | MDA-MB-435 35.6 µM | SN12C > 100 µM | OVCAR-3 > 100 µM | HL-60 > 100 µM | SK-MEL-2 > 100 µM | 786-0 > 100 µM | NCI-H460 58.2 µM | K562 > 100 µM | MCF7 > 100 µM | OVCAR-5 > 100 µM | Hs-578T 78.2 µM | HOP-92 > 100 µM | Malme-3M 83 µM | SW-620 > 100 µM | MDA-MB-231 > 100 µM | UO-31 45.3 µM | ACHN > 100 µM | OVCAR-4 83.8 µM | OVCAR-8 > 100 µM | UACC-62 > 100 µM | NCI-H522 65.2 µM

CNc1nncc2[nH]cnc12
> 100 µM: HCT-15
inactive: EKVX > 100 µM | HCT-116 > 100 µM | LOX IMVI > 100 µM | MOLT-4 > 100 µM | SNB-75 > 100 µM | IGROV-1 > 100 µM | CAKI-1 > 100 µM | SF-268 > 100 µM | T47D > 100 µM | SK-MEL-28 > 100 µM | COLO 205 > 100 µM | SK-MEL-5 > 100 µM | SNB-19 > 100 µM | HT-29 > 100 µM | A498 > 100 µM | MDA-N > 100 µM | BT-549 > 100 µM | RXF 393 > 100 µM | TK-10 > 100 µM | U-251 > 100 µM | UACC-257 > 100 µM | CCRF-CEM > 100 µM | RPMI-8226 > 100 µM | SK-OV-3 > 100 µM | KM12 > 100 µM | MDA-MB-435 > 100 µM | SN12C > 100 µM | HL-60 32.4 µM | DU-145 > 100 µM | 786-0 > 100 µM | MCF7 > 100 µM | Hs-578T > 100 µM | HOP-92 > 100 µM | SW-620 > 100 µM | MDA-MB-231 > 100 µM | UO-31 > 100 µM | ACHN > 100 µM | OVCAR-8 > 100 µM | UACC-62 > 100 µM

C/C(Cl)=N/OC(=O)Nc1ccc(F)c([N+](=O)[O-])c1
active: Hs-578T 0.457 µM
5.94 µM: HCT-15
inactive: HOP-62 18.2 µM | EKVX 16.3 µM | PC-3 17.8 µM | HCT-116 3.89 µM | LOX IMVI 6.68 µM | SR 8.57 µM | HCC 2998 37.3 µM | NCI-H226 26.4 µM | MOLT-4 1.78 µM | M14 19.2 µM | NCI/ADR-RES 30.3 µM | SNB-75 1.71 µM | IGROV-1 6.97 µM | CAKI-1 1.79 µM | SF-268 15.4 µM | SK-MEL-28 17.6 µM | COLO 205 2.34 µM | SK-MEL-5 14 µM | SNB-19 20.1 µM | HT-29 19.6 µM | A498 19.5 µM | SF-295 31.1 µM | MDA-N 16 µM | A549 26.2 µM | SF-539 33.3 µM | BT-549 14.1 µM | RXF 393 12.1 µM | TK-10 6.1 µM | U-251 20 µM | UACC-257 20.7 µM | CCRF-CEM 2.13 µM | RPMI-8226 2.65 µM | SK-OV-3 20.9 µM | KM12 17.1 µM | NCI-H23 20 µM | MDA-MB-435 14.5 µM | SN12C 7.57 µM | OVCAR-3 19.2 µM | HL-60 1.94 µM | DU-145 17.3 µM | SK-MEL-2 17.6 µM | 786-0 4 µM | NCI-H460 4.75 µM | K562 2.57 µM | MCF7 15.2 µM | OVCAR-5 24.2 µM | HOP-92 5.4 µM | Malme-3M 2.65 µM | SW-620 3.71 µM | MDA-MB-231 17.5 µM | UO-31 8.05 µM | ACHN 3.02 µM | OVCAR-4 7.36 µM | OVCAR-8 8.91 µM | UACC-62 21.3 µM | NCI-H522 1.81 µM
